{"source": "paper PMC7559834", "about": "“Functional and Pharmacological Comparison of Human, Mouse, and Rat Organic Cation Transporter 1 toward Drug and Pesticide Interaction” (International Journal of Molecular Sciences, 2020)", "molecules": {"B1": {"name": "human OCT1 (hOCT1) (Homo sapiens) (protein)", "chain": "MPTVDDILEQVGESGWFQKQAFLILCLLSAAFAPICVGIVFLGFTPDHHCQSPGVAELSQRCGWSPAEELNYTVPGLGPAGEAFLGQCRRYEVDWNQSALSCVDPLASLATNRSHLPLGPCQDGWVYDTPGSSIVTEFNLVCADSWKLDLFQSCLNAGFLFGSLGVGYFADRFGRKLCLLGTVLVNAVSGVLMAFSPNYMSMLLFRLLQGLVSKGNWMAGYTLITEFVGSGSRRTVAIMYQMAFTVGLVALTGLAYALPHWRWLQLAVSLPTFLFLLYYWCVPESPRWLLSQKRNTEAIKIMDHIAQKNGKLPPADLKMLSLEEDVTEKLSPSFADLFRTPRLRKRTFILMYLWFTDSVLYQGLILHMGATSGNLYLDFLYSALVEIPGAFIALITIDRVGRIYPMAMSNLLAGAACLVMIFISPDLHWLNIIIMCVGRMGITIAIQMICLVNAELYPTFVRNLGVMVCSSLCDIGGIITPFIVFRLREVWQALPLILFAVLGLLAAGVTLLLPETKGVALPETMKDAENLGRKAKPKENTIYLKVQTSEPSGT", "notes": "NM_003057.2, OCT1*1B allele, stably transfected HEK293 cells"}, "B2": {"name": "rat Oct1 (rOct1) (Rattus norvegicus) (protein)", "chain": "MPTVDDVLEQVGEFGWFQKQAFLLLCLISASLAPIYVGIVFLGFTPGHYCQNPGVAELSQRCGWSQAEELNYTVPGLGPSDEASFLSQCMRYEVDWNQSTLDCVDPLSSLVANRSQLPLGPCEHGWVYDTPGSSIVTEFNLVCGDAWKVDLFQSCVNLGFFLGSLVVGYIADRFGRKLCLLVTTLVTSVSGVLTAVAPDYTSMLLFRLLQGMVSKGSWVSGYTLITEFVGSGYRRTTAILYQMAFTVGLVGLAGVAYAIPDWRWLQLAVSLPTFLFLLYYWFVPESPRWLLSQKRTTRAVRIMEQIAQKNGKVPPADLKMLCLEEDASEKRSPSFADLFRTPNLRKHTVILMYLWFSCAVLYQGLIMHVGATGANLYLDFFYSSLVEFPAAFIILVTIDRIGRIYPIAASNLVTGAACLLMIFIPHELHWLNVTLACLGRMGATIVLQMVCLVNAELYPTFIRNLGMMVCSALCDLGGIFTPFMVFRLMEVWQALPLILFGVLGLTAGAMTLLLPETKGVALPETIEEAENLGRRKSKAKENTIYLQVQTGKSSST", "notes": "NM_012697.1, stably transfected HEK293 cells"}, "B3": {"name": "mouse Oct1 (mOct1) (Mus musculus) (protein)", "chain": "MPTVDDVLEHVGEFGWFQKQAFLLLCLISASLAPIYVGIVFLGFTPDHHCRSPGVAELSQRCGWSPAEELNYTVPGLGSAGEASFLSQCMKYEVDWNQSTLDCVDPLSSLAANRSHLPLSPCEHGWVYDTPGSSIVTEFNLVCGDAWKVDLFQSCVNLGFFLGSLVVGYIADRFGRKLCLLVTTLVTSLSGVLTAVAPDYTSMLLFRLLQGMVSKGSWVSGYTLITEFVGSGYRRTTAILYQVAFTVGLVGLAGVAYAIPDWRWLQLAVSLPTFLFLLYYWFVPESPRWLLSQKRTTQAVRIMEQIAQKNRKVPPADLKMMCLEEDASERRSPSFADLFRTPSLRKHTLILMYLWFSCAVLYQGLIMHVGATGANLYLDFFYSSLVEFPAAFIILVTIDRIGRIYPIAASNLVAGAACLLMIFIPHELHWLNVTLACLGRMGATIVLQMVCLVNAELYPTFIRNLGMMVCSALCDLGGIFTPFMVFRLMEVWQALPLILFGVLGLSAGAVTLLLPETKGVALPETIEEAENLGRRKSKAKENTIYLQVQTGKSPHT", "notes": "NM_009202.5, stably transfected HEK293 cells"}}, "key": {"human OCT1 (hOCT1) [1]": {"biological_target": "T1, human OCT1 (hOCT1) (Homo sapiens, UniProt O15245)", "T1 sequence (O15245 1-554)": "B1 chain", "experiment": "cell-based", "design": "gene SLC22A1", "conditions": "HEK293, read-out: Inhibitory Effects (%) / hOCT1 / 10 μM"}, "[2]": {"experiment": "inhibition of 3H-MPP uptake in transfected HEK293 cells, % at […]", "format": "cell-based, Mus musculus", "conditions": "read-out: Inhibitory Effects (%) / hOCT1 / 100 μM"}, "hMATE1": {"biological_target": "T2, hMATE1 (Homo sapiens, UniProt Q96FL8)", "T2 construct": "gene SLC47A1; NM_018242.2, stably transfected HEK293 cells", "T2 sequence (Q96FL8 1-570)": "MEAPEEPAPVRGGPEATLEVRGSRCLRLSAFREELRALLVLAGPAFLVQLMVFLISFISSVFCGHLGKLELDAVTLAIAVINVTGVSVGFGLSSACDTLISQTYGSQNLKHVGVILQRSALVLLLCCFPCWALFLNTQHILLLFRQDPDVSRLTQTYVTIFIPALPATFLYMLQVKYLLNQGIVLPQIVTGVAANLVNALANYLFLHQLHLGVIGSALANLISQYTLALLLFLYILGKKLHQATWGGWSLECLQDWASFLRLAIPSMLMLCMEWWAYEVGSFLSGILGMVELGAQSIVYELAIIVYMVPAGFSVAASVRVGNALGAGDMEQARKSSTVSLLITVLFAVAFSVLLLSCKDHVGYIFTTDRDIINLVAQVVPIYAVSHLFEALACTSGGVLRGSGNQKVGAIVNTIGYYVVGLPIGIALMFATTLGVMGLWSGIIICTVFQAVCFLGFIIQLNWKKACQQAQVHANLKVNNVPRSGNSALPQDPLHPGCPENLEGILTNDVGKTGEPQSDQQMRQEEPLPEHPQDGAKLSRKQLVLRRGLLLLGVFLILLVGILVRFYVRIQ", "experiment": "inhibition of […]-metformin uptake in transfected HEK293 cells, % at […]", "format": "cell-based", "conditions": "read-out: Inhibitory Effects (%) / hMATE1 / 10 μM"}, "rat Oct1 (rOct1)": {"biological_target": "T3, rat Oct1 (rOct1) (Rattus norvegicus, UniProt Q63089)", "T3 construct": "gene Slc22a1; NM_012697.1, stably transfected HEK293 cells", "T3 sequence (Q63089 1-556)": "B2 chain", "experiment": "inhibition of 3H-MPP uptake in transfected HEK293 cells", "format": "cell-based"}, "mouse Oct1 (mOct1)": {"biological_target": "T4, mouse Oct1 (mOct1) (Mus musculus, UniProt O08966)", "T4 construct": "gene Slc22a1; NM_009202.5, stably transfected HEK293 cells", "T4 sequence (O08966 1-556)": "B3 chain", "experiment": "inhibition of 3H-MPP uptake in transfected HEK293 cells", "format": "cell-based"}, "human OCT1 (hOCT1) [3]": {"biological_target": "T1, human OCT1 (hOCT1)", "experiment": "inhibition of 3H-MPP uptake in transfected HEK293 cells", "format": "cell-based", "design": "gene SLC22A1; NM_003057.2, OCT1*1B allele, stably transfected HEK293 cells"}, "[4]": {"substrate": "C[n+]1ccc(-c2ccccc2)cc1", "experiment": "concentration-dependent 3H-MPP uptake, Km", "format": "cell-based, Homo sapiens"}, "[5]": {"substrate": "C[n+]1ccc(-c2ccccc2)cc1", "experiment": "concentration-dependent 3H-MPP uptake, Km", "format": "cell-based, Rattus norvegicus"}, "[6]": {"substrate": "C[n+]1ccc(-c2ccccc2)cc1", "experiment": "concentration-dependent 3H-MPP uptake, Km", "format": "cell-based, Mus musculus"}}, "note": "Like-named read-outs stand apart in the source and are kept apart here."}
{"molecule": "Clc1cccc(Cl)c1N=C1NCCN1", "note": "[Clonidine]", "values": [{"measurement": "inhibition at 10 µM", "setting": "human OCT1 (hOCT1) [1]", "result": 73, "unit": "%"}]}
{"molecule": "C=CCOC(Cn1ccnc1)c1ccc(Cl)cc1Cl", "note": "(stereo not shown) [Imazalil]", "values": [{"measurement": "inhibition at 10 µM", "setting": "[2]", "result": 84, "unit": "%"}]}
{"molecule": "CC(=O)N1CCN(c2ccc(OCC3COC(Cn4ccnc4)(c4ccc(Cl)cc4Cl)O3)cc2)CC1", "note": "(stereo not shown) [Ketoconazol]", "values": [{"measurement": "inhibition at 10 µM", "setting": "hMATE1", "result": 87, "unit": "%"}]}
{"molecule": "CCN1/C(=C/c2ccc3ccccc3[n+]2CC)C=Cc2ccccc21", "note": "[decynium22]", "values": [{"measurement": "IC50", "setting": "rat Oct1 (rOct1)", "result": "10.5 ± 0.4", "unit": "µM"}, {"measurement": "IC50", "setting": "mouse Oct1 (mOct1)", "result": "5.3 ± 0.4", "unit": "µM"}, {"measurement": "IC50", "setting": "human OCT1 (hOCT1) [3]", "result": "12.1 ± 0.8", "unit": "µM"}, {"measurement": "inhibition at 10 µM", "setting": "hMATE1", "result": 76, "unit": "%"}]}
{"molecule": "B1", "values": [{"measurement": "Km", "setting": "[4]", "result": "73 ± 7", "unit": "µM"}]}
{"molecule": "B2", "values": [{"measurement": "Km", "setting": "[5]", "result": "57 ± 5", "unit": "µM"}]}
{"molecule": "B3", "values": [{"measurement": "Km", "setting": "[6]", "result": "36 ± 13", "unit": "µM"}]}
